Laboratory results reported in patent US20260209208A1, “PHENYL-PYRAZOLE CARBOXAMIDE COMPOUNDS” (Acrivon Therapeutics, Inc., priority 2022, published 2026).
pEC50, pIC50: −log10 of the molar value.

What was measured:
DAOY cells = test: Cell Titer Glo viability assay; assay type: cell-based; conditions: Homo sapiens, 144 hours, Cell Titer Glo 2.0
Procedure: (§1) DAOY medulloblastoma cell line (ATCC) was cultured in Minimum Essential Medium Eagle supplemented with 10% fetal calf serum (Sigma), 1% Penicillin-Streptomycin and 10 mM HEPES buffer (HyClone). Cell cultures were kept in a humidified incubator at 37° C. and 5% CO2. Cells were routinely tested for Mycoplasma contamination.
DAOY cells were seeded at a density of 250 cells per well in tissue culture 384 well plates (Corning Costar). After overnight incubation, cells were incubated with test compounds at concentrations ranging from 0.17 to 10,000 nM. Viability compared to untreated control was assessed at 144 hours using Cell Titer Glo® 2.0 Viability Assay (Promega).

[1] = biological target: T1, recombinant human PMYT-1 (Myt1 kinase) (Homo sapiens, UniProt Q99640); test: LanthaScreen Europium (Eu) Kinase Binding Assay for Myt1 kinase; conditions: TR-FRET tracer 178 displacement, GST-tagged full length PMYT-1, 60 min, room temperature; mean IC50; read-out: LANTHA Kinase Binding for PMyt1
T1 construct: full length PMYT-1 was expressed by baculovirus in insect cells using a N-terminal GST tag; purchased Invitrogen A30984; host or cells: insect cells (baculovirus)
T1 sequence (Q99640 1-499): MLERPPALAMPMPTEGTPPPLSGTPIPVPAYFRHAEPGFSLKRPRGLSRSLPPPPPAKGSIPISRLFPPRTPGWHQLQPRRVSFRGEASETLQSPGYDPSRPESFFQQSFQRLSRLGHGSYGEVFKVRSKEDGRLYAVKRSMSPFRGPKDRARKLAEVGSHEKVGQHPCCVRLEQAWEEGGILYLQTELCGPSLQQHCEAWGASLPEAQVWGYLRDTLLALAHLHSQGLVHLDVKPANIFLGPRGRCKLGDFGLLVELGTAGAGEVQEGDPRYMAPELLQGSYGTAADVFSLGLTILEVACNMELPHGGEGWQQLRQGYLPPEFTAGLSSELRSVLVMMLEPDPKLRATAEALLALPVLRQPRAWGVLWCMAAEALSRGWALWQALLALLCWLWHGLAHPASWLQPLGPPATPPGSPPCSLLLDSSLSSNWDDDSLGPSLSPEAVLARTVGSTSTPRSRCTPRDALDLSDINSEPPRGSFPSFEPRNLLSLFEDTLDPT
Description: We used a LanthaScreen Europium (Eu) Kinase Binding Assay to determine the binding of provided compounds to Myt1 kinase. The assay utilizes an Alexa Fluor 647-labeled ATP competitive kinase tracer that binds to the ATP binding site of a GST-tagged Myt1 kinase, while a europium (Eu) labeled antibody binds to the GST tag. The proximity of fluorescently labeled kinase tracer and europium (Eu) donor fluorophore antibody leads to fluorescence resonance energy transfer (FRET) to the fluorescence label (acceptor) upon excitation of the Eu (donor). Displacement of tracer from the ATP-binding site by a test compound disturbs the proximity between both labels thus lowering the FRET.
This time resolved-FRET binding assay was performed in white 384-well low volume plates (Greiner, cat #784075), at room temperature in kinase buffer A (KBA; Invitrogen cat # PV3189), consisting of 50 mM HEPES-NaOH (pH 7.5), 0.01% Brij-35, 10 mM MgCl2, and 1 mM EGTA. 5 μl of compound (diluted in reaction buffer, to 1% DMSO) were added to various wells in the plate, followed by 5 μl each of recombinant human PMYT-1 (full length PMYT-1 was expressed by baculovirus in insect cells using a N-terminal GST tag (MW: 80.8 kDa) (Invitrogen cat #A30984) and LanthaScreen Eu-anti-GST antibody (Invitrogen, cat #PV5594). After this, 5 μl of kinase tracer 178 (Invitrogen, cat #PV5593) was added to the plate and the plate was incubated for 60 minutes at room temperature. The final assay conditions in each well were: 3 nM tracer 178, 2.5 nM PMYT-1 and 1 nM Eu-labeled antibody in total assay volume of 15 μl. An Envision 2104 (Perkin-Elmer) Plate Reader with the following time-resolve fluorescence setting was used for performing LanthaScreen kinase binding assay. • Excitation 320 nm (30 nm bandpass) • Kinase Tracer Emission 665 nm (10 nm bandpass) • LanthaScreen Eu-anti-Tag Antibody Emission 615 nm (10 nm bandpass) • Dichroic Mirror Instrument dependent • Delay Time 100 μs • Integration Time 200 μs
To calculate the emission ratio, the acceptor/tracer emission ([…]) was divided by the antibody/donor emission ([…]) and the average of duplicate measurement was used for calculations. Data plotting, analysis of binding, and curve fitting was done using Excel add-in XLfit version 5.5.0.5 (IDBS, Guildford, United Kingdom).

Myt1 Kinase = biological target: T2, Myt1 Kinase (Homo sapiens, UniProt Q99640); test: AlphaLISA SureFire Ultra Human Phospho-CDK1 (Thr14) target engagement assay in DAOY cells; assay type: cell-based; conditions: 4 h incubation, Cdk1 phosphorylated on threonine 14, read-out: TE Myt1 Kinase (AlphaLISA)
T2 construct: endogenous in cells; host or cells: DAOY medulloblastoma cells (ATCC)
T2 sequence (Q99640 1-499): T1 sequence (Q99640 1-499)
Procedure: The following cellular assay was used to determine the extent to which the compounds disclosed herein inhibit phosphorylation of CDK1 at Thr 14.
as §1
For target engagement assessment, quantification of Cdk1 phosphorylated on threonine 14 was detected using the AlphaLISA® SureFire® Ultra™ Human Phospho-CDK1 (Thr14) assay (Perkin Elmer). DAOY cells were seeded into tissue culture 96-well plates (VWR) to a density of 10,000 cells per well. Twenty-four hours post-seeding cells were incubated for 4 h with test compounds at concentrations ranging from 7 to 5000 nM. Cells were washed with PBS and lysed in 50 μl AlphaLISA® lysis buffer before freezing at −80° C. Ten μl of the lysate was transferred to 384 well plates and incubated with AlphaLISA® donor and acceptor beads according to the manufacturer's instructions. Dose response curves and EC50 values were calculated and visualized using GraphPad Prism version 9.

SMILES | pIC50 [1] | pEC50 (Myt1 Kinase) | pEC50 (DAOY cells)
Cc1ccc(O)c(C)c1-n1nc(-c2coc3ccccc23)c(C(N)=O)c1N [Compound 82, 5-amino-3-(1-benzofuran-3-yl)-1-(3-hydroxy-2,6-xylyl)-4-pyrazolecarboxamide] | ≥ 8.00 | 6.00 to 6.30 | < 6.00
Cc1ccc(O)c(C)c1-n1nc(-c2ccc(-c3ccccc3)o2)c(C(N)=O)c1N [Compound 87, 5-Amino-1-(3-hydroxy-2,6-xylyl)-3-(5-phenyl-2-furyl)-4-pyrazolecarboxamide] | ≥ 8.00 | ≥ 6.60 | ≥ 6.30
Cc1ccc(O)c(C)c1-n1nc(-c2cc(-c3ccccc3)co2)c(C(N)=O)c1N [Compound 88, 5-amino-1-(3-hydroxy-2,6-xylyl)-3-(4-phenyl-2-furyl)-4-pyrazolecarboxamide] | ≥ 8.00 | ≥ 6.60 | ≥ 6.30
Cc1coc(-c2nn(-c3c(C)ccc(O)c3C)c(N)c2C(N)=O)c1 [Compound 90, 5-amino-1-(3-hydroxy-2,6-xylyl)-3-(4-methyl-2-furyl)-4-pyrazolecarboxamide] | ≥ 8.00 | ≥ 6.60 | ≥ 6.30
NC(=O)c1c(-c2cc(Br)co2)nn(-c2c(Cl)ccc(O)c2Cl)c1N [Compound 92, 5-amino-3-(4-bromo-2-furyl)-1-(2,6-dichloro-3-hydroxyphenyl)-4-pyrazolecarboxamide] | 7.00 to 8.00 | 6.00 to 6.30 | –
NC(=O)c1c(-c2cc3ccccc3o2)nn(-c2c(Cl)ccc(O)c2Cl)c1N [Compound 93, 5-amino-3-(1-benzofuran-2-yl)-1-(2,6-dichloro-3-hydroxyphenyl)-4-pyrazolecarboxamide] | 7.00 to 8.00 | 6.00 to 6.30 | –
Cc1ccc(O)c(C)c1-n1nc(-c2cc(-c3cccnc3)co2)c(C(N)=O)c1N [Compound 94, 5-amino-1-(3-hydroxy-2,6-xylyl)-3-[4-(3-pyridyl)-2-furyl]-4-pyrazolecarboxamide] | ≥ 8.00 | ≥ 6.60 | ≥ 6.30
Cc1ccc(O)c(C)c1-n1nc(-c2cc(-c3ccncc3)co2)c(C(N)=O)c1N [Compound 95, 5-amino-1-(3-hydroxy-2,6-xylyl)-3-[4-(4-pyridyl)-2-furyl]-4-pyrazolecarboxamide] | ≥ 8.00 | ≥ 6.60 | ≥ 6.30
C=Cc1coc(-c2nn(-c3c(C)ccc(O)c3C)c(N)c2C(N)=O)c1 [Compound 96, 5-amino-1-(3-hydroxy-2,6-xylyl)-3-(4-vinyl-2-furyl)-4-pyrazolecarboxamide] | ≥ 8.00 | ≥ 6.60 | ≥ 6.30
Cc1ccc(O)c(C)c1-n1nc(-c2ccc(-c3ccccn3)o2)c(C(N)=O)c1N [Compound 100, 5-amino-1-(3-hydroxy-2,6-xylyl)-3-[5-(2-pyridyl)-2-furyl]-4-pyrazolecarboxamide] | – | 6.30 to 6.60 | < 6.00
Cc1ccc(O)c(C)c1-n1nc(-c2ccsc2)c(C(N)=O)c1N [Compound 120] | ≥ 8.00 | 6.30 to 6.60 | –
Cc1ccc(O)c(C)c1-n1nc(-c2nccn2C)c(C(N)=O)c1N [Compound 124] | 7.00 to 8.00 | < 6.00 | –
Cc1ccc(O)c(C)c1-n1nc(-c2ncc[nH]2)c(C(N)=O)c1N [Compound 125] | ≥ 8.00 | 6.00 to 6.30 | –

Now from value to compound, other results behind:

pIC50 [1] | pEC50 (Myt1 Kinase) | SMILES | pEC50 (DAOY cells)
≥ 8.00 | ≥ 6.60 | Cc1ccc(O)c(C)c1-n1nc(-c2ccco2)c(C(N)=O)c1N (single isomer, unassigned) [Compound 104, 5-amino-3-(furan-2-yl)-1-(3-hydroxy-2,6-dimethylphenyl)-1H-pyrazole-4-carboxamide] | 6.00 to 6.30
≥ 8.00 | ≥ 6.60 | Cc1ccc(O)c(C)c1-n1nc(-c2cc(Br)co2)c(C(N)=O)c1N (single isomer, unassigned) [Compound 106, 5-amino-3-(4-bromofuran-2-yl)-1-(3-hydroxy-2,6-dimethylphenyl)-1H-pyrazole-4-carboxamide] | ≥ 6.30
≥ 8.00 | ≥ 6.60 | Cc1ccc(O)c(C)c1-n1nc(-c2cc3ccccc3o2)c(C(N)=O)c1N (single isomer, unassigned) [Compound 107, 5-amino-3-(benzofuran-2-yl)-1-(3-hydroxy-2,6-dimethylphenyl)-1H-pyrazole-4-carboxamide] | ≥ 6.30
7.00 to 8.00 | ≥ 6.60 | Cc1ccc(O)c(C)c1-n1nc(-c2ccccc2)c(C(N)=O)c1N [Compound 9, 5-amino-1-(3-hydroxy-2,6-dimethylphenyl)-3-phenyl-1H-pyrazole-4-carboxamide; trifluoroacetic acid] | < 6.00
≥ 8.00 | ≥ 6.60 | Cc1ccc(O)c(C)c1-n1nc(-c2ccccn2)c(C(N)=O)c1N [Compound 35] | < 6.00
≥ 8.00 | ≥ 6.60 | Cc1ccc(O)c(C)c1-n1nc(-c2cc3ccccc3o2)c(C(N)=O)c1N [Compound 72, 5-amino-3-(1-benzofuran-2-yl)-1-(3-hydroxy-2,6-xylyl)-4-pyrazolecarboxamide] | ≥ 6.30
≥ 8.00 | ≥ 6.60 | Cc1ccc(O)c(C)c1-n1nc(-c2ccc(Br)o2)c(C(N)=O)c1N [Compound 73, 5-amino-3-(5-bromo-2-furyl)-1-(3-hydroxy-2,6-xylyl)-4-pyrazolecarboxamide] | ≥ 6.30
≥ 8.00 | ≥ 6.60 | Cc1ccc(O)c(C)c1-n1nc(-c2cc(Br)co2)c(C(N)=O)c1N [Compound 79, 5-amino-3-(4-bromo-2-furyl)-1-(3-hydroxy-2,6-xylyl)-4-pyrazolecarboxamide] | ≥ 6.30
≥ 8.00 | ≥ 6.60 | Cc1ccc(O)c(C)c1-n1nc(-c2ccc(Cl)o2)c(C(N)=O)c1N [Compound 80, 5-amino-3-(5-chloro-2-furyl)-1-(3-hydroxy-2,6-xylyl)-4-pyrazolecarboxamide] | < 6.00
≥ 8.00 | ≥ 6.60 | Cc1ccc(-c2nn(-c3c(C)ccc(O)c3C)c(N)c2C(N)=O)o1 [Compound 81, 5-amino-1-(3-hydroxy-2,6-xylyl)-3-(5-methyl-2-furyl)-4-pyrazolecarboxamide] | 6.00 to 6.30
≥ 8.00 | ≥ 6.60 | Cc1ccc(O)c(C)c1-n1nc(-c2ccc(-c3cccnc3)o2)c(C(N)=O)c1N [Compound 86, 5-amino-1-(3-hydroxy-2,6-xylyl)-3-[5-(3-pyridyl)-2-furyl]-4-pyrazolecarboxamide] | 6.00 to 6.30
